Reference: PubChem BioAssay (NCI)
Several values for one entry are separate records, joined by “and”; a condition that tells them apart may be missing. Equal values may be shown once.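 The compound was tested at five concentrations on cells cultured in 96-well plates, with a 48-hour exposure period. GI50: concentration for 50% inhibition of growth. At the TGI there is no net growth.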

How the values were obtained:
Assay in all cases: inhibition of tumour cell growth, NCI panel, 48 h
A549 NSCLC = test system: A549 NSCLC
ACHN renal = test system: ACHN renal
CAKI-1 renal = test system: CAKI-1 renal
CCRF-CEM leukemia = test system: CCRF-CEM leukemia
HCT-15 colon = test system: HCT-15 colon
HT29 colon = test system: HT29 colon
NCI-H460 lung = test system: NCI-H460 lung
NCI/ADR-RES ovarian = test system: NCI/ADR-RES ovarian
SK-MEL-28 melanoma = test system: SK-MEL-28 melanoma
SW-620 colon = test system: SW-620 colon

| SMILES | GI50 (A549 NSCLC) | TGI (A549 NSCLC) | GI50 (ACHN renal) | TGI (ACHN renal) | GI50 (CAKI-1 renal) | TGI (CAKI-1 renal) | GI50 (CCRF-CEM leukemia) | TGI (CCRF-CEM leukemia) | GI50 (HCT-15 colon) | TGI (HCT-15 colon) | GI50 (HT29 colon) | TGI (HT29 colon) | GI50 (NCI-H460 lung) | TGI (NCI-H460 lung) | GI50 (NCI/ADR-RES ovarian) | TGI (NCI/ADR-RES ovarian) | GI50 (SK-MEL-28 melanoma) | TGI (SK-MEL-28 melanoma) | GI50 (SW-620 colon) | TGI (SW-620 colon) |
| --- | --- | --- | --- | --- | --- | --- | --- | --- | --- | --- | --- | --- | --- | --- | --- | --- | --- | --- | --- | --- |
| CCOc1ccc(C(C)=O)cc1NC(=O)c1cccc(-c2nnn(CC)n2)c1 | 0.892 µM | > 100 µM | 0.748 µM | 70.3 µM | 0.939 µM | > 100 µM | 0.937 µM | > 100 µM | 0.419 µM | > 100 µM | 0.325 µM | > 100 µM | 0.423 µM | > 100 µM | 0.511 µM | 13.3 µM | 4.75 µM | > 100 µM | 0.492 µM | > 100 µM |
| Cc1ccc(O)c(NC2=C(Cl)C(=O)N(Cc3ccccc3)C2=O)c1 | 27.1 µM | 91.3 µM | 32.4 µM | > 100 µM | 27.5 µM | 82.3 µM | 4.54 µM | 29 µM | 25.3 µM | 72.6 µM | 33.3 µM | > 100 µM | 28.6 µM | > 100 µM | 38.1 µM | > 100 µM | 22.3 µM | 54.1 µM | 32.5 µM | > 100 µM |
| COc1cccc(NC(=O)c2sc3nc4c(cc3c2N)C(O)CCC4)c1 (centres undefined) | 0.287 µM | > 100 µM | 0.956 µM | > 100 µM | 0.538 µM | > 100 µM | 0.22 µM | > 100 µM | 0.0856 µM | > 100 µM | 0.133 µM | > 100 µM | 0.324 µM | > 100 µM | 0.206 µM | > 100 µM | 0.787 µM | > 100 µM | 0.107 µM | > 100 µM |
| Cc1c(C)c2c(c(C)c1OCC(=O)O)CC[C@@](C)(CCC[C@@H](C)CCC[C@@H](C)CCCC(C)C)O2 | 24.4 µM | 107 µM | 53.1 µM | 112 µM | 76.7 µM | 151 µM | 27.1 µM | 189 µM | 40.8 µM | 120 µM | 58.3 µM | 140 µM | 55.3 µM | 168 µM | 78.7 µM | 210 µM | 62.6 µM | 129 µM | 81.9 µM | 218 µM |
| C=C(CN1c2ccccc2Sc2ccccc21)c1ccc(C(=O)Nc2ccccc2N)cc1 | 11.4 µM | > 100 µM | > 71.7 µM | > 100 µM | 8.83 µM | > 50.2 µM | 0.101 µM |  | > 42.5 µM | > 100 µM | 11.5 µM | > 100 µM | 17.7 µM | > 100 µM | 8.77 µM | > 100 µM | 43.5 µM | > 100 µM | > 92.3 µM | > 100 µM |
| Cc1noc(C)c1-c1cnc2c(-c3ccc(C(=O)O)cc3)cn([C@@H](C)c3ccccn3)c2c1 | 3.25 µM | > 100 µM | 1.38 µM | > 100 µM | 0.0745 µM | > 83.6 µM | 2.73 µM | > 100 µM | 0.418 µM | > 100 µM | 0.386 µM | > 100 µM | 6.07 µM | > 100 µM | 2.28 µM | > 100 µM | 5.44 µM | > 100 µM | 15.6 µM | > 100 µM |
| NC(CSC(c1ccccc1)(c1ccccc1)c1ccc(F)cc1)C(=O)O (centres undefined) | 0.35 µM | > 31.7 µM | 5.04 µM | > 100 µM | 0.79 µM | > 26.8 µM | 0.289 µM | > 100 µM | 0.511 µM | > 100 µM | 0.803 µM | > 27.8 µM | 0.336 µM | 14.9 µM | 2.98 µM | 19.2 µM | 6.04 µM | > 100 µM | 0.43 µM | > 100 µM |
| COc1ccc(-c2n[nH]nc2-c2cc(OC)c3c(c2)OCO3)cc1 | 0.0239 µM | > 100 µM | 0.0648 µM | > 100 µM | 0.0237 µM | 58.5 µM | 0.0264 µM | 14.2 µM | < 0.01 µM | > 36.2 µM | 0.0365 µM | 4.29 µM | 0.0143 µM | 13.2 µM | < 0.01 µM | 0.982 µM | 0.0444 µM | > 89.7 µM | < 0.0117 µM | > 100 µM |
| COc1ccc2c(c1)O/C(=C\c1cccc(OCC(=O)Nc3nc(C)c(C)s3)c1)C2=O | 2.18 µM | 6.43 µM | 2.28 µM | 7 µM | 1.06 µM |  | 0.312 µM | 3.07 µM | 6.76 µM | > 100 µM | 2.73 µM | > 21 µM | 11.6 µM | > 100 µM | 21.3 µM | > 100 µM | 20.9 µM | > 100 µM | 2.86 µM | > 26.8 µM |
| O=C(O)Cn1ccc2ccccc21 | > 100 µM | > 100 µM | > 100 µM | > 100 µM | > 100 µM | > 100 µM | > 100 µM | > 100 µM | > 100 µM | > 100 µM | > 100 µM | > 100 µM | > 100 µM | > 100 µM | > 100 µM | > 100 µM | > 100 µM | > 100 µM | > 100 µM | > 100 µM |
| Nc1ccccc1C(=O)NC(=O)Nc1ccc(Oc2ncc(Br)cn2)c(Cl)c1 |  | 13.4 µM |  | 30.8 µM |  | 1.72 µM | 0.0249 µM and < 0.0246 µM | 1.9 µM |  | 22.6 µM |  | 0.448 µM |  | 3.53 µM |  | 0.391 µM |  | 18.3 µM | 0.0181 µM | 26.3 µM |
| COc1cc(Nc2ncnc(Nc3ccc4c(n3)NC(=O)C(C)(C)O4)n2)cc(OC)c1OC | 1.25 µM | > 100 µM | 0.16 µM | 23.7 µM | 0.319 µM | > 100 µM | 3.73 µM | > 100 µM | 1.7 µM | > 100 µM | 0.803 µM | > 100 µM | 3.2 µM | > 100 µM |  | > 100 µM | > 23.9 µM | > 100 µM | 2.73 µM | > 100 µM |
| CCc1nn2ncccc2c1-c1ccnc(NC2CC2)n1 | > 25 µM | > 25 µM | > 25 µM | > 25 µM | > 22.1 µM | > 25 µM | > 25 µM | > 25 µM | > 25 µM | > 25 µM | > 25 µM | > 25 µM | > 25 µM | > 25 µM | > 25 µM | > 25 µM | > 25 µM | > 25 µM | > 25 µM | > 25 µM |
